Test results as given in patent US9006487B2, “Amine-containing lipids and uses thereof” (Massachusetts Institute of Technology, priority 2005, dated 2015).

Tests used:
Assay type in all cases: cell-based
cos-7 cells = experiment: DNA transfection: luciferase expression relative to Lipofectamine 2000; conditions: for Luciferase expression as a percentage of that achieved using Lipofectamine 2000: 300 ng Luciferase DNA per well; for Luciferase expression as a percentage of that achieved using Lipofectamine 2000 / % of the luciferase activity obtained from the use of Lipofectamine 2000: luciferase assay after 48 hours; for % of the luciferase activity obtained from the use of Lipofectamine 2000: 300 ng DNA per well; for luciferase expression (second part of table, values relative to LIPO2000): 300 ng of DNA per well
Procedure, shortened: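 Lipid/DNA complexes, 300 ng luciferase DNA per well at 2.5-25 w/w lipid:DNA, were formed in sodium acetate/Optimem and added to overnight-seeded cos-7 cells. Luciferase was measured by Bright-Glo luminescence after 48 hours and quantified against an enzyme standard curve. Values are expressed as % of Lipofectamine 2000 at 2.5 w/w.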

[1] = system: renilla and firefly luciferases; experiment: siRNA delivery: reporter-protein (renilla luciferase) knockdown relative to Lipofectamine 2000, firefly luciferase as viability control; conditions: 50 ng of siRNA per well
Method: Reporter-protein knockdown achieved by the top transfecting lipids relative to Lipofectamine™ 2000 (where negative values indicate improved knockdown). The assay accounts for toxicity, monitoring expression of both renilla and firefly luciferases, where the latter serves as viability control. For each lipid, 50 ng of siRNA was added per well at specific lipid/RNA w/w ratios (from top to bottom: 2.5, 5, 10, 15).

[2] = DNA delivery: raw luciferase expression (relative light units) of best-transfecting lipids; conditions: 300 ng of DNA per well
Method: Raw values for luciferase expression (relative lights units) of best-transfecting lipids at lipid/DNA (w/w) ratios listed. 300 ng of DNA was added per well.

Structure (SMILES) | Luciferase expression as a percentage of that achieved using Lipofectamine 2000 (cos-7 cells; lipid/DNA 2.5 w/w) [%] | Luciferase expression as a percentage of that achieved using Lipofectamine 2000 (cos-7 cells; lipid/DNA 5 w/w) [%] | Luciferase expression as a percentage of that achieved using Lipofectamine 2000 (cos-7 cells; lipid/DNA 10 w/w) [%] | Luciferase expression as a percentage of that achieved using Lipofectamine 2000 (cos-7 cells; lipid/DNA 15 w/w) [%] | Luciferase expression as a percentage of that achieved using Lipofectamine 2000 (cos-7 cells; lipid/DNA 20 w/w) [%] | Luciferase expression as a percentage of that achieved using Lipofectamine 2000 (cos-7 cells; lipid/DNA 25 w/w) [%] | Reporter-protein knockdown relative to Lipofectamine 2000 (negative values indicate improved knockdown) ([1]; lipid/RNA 2.5 w/w) | Reporter-protein knockdown relative to Lipofectamine 2000 (negative values indicate improved knockdown) ([1]; lipid/RNA 5 w/w) | Reporter-protein knockdown relative to Lipofectamine 2000 (negative values indicate improved knockdown) ([1]; lipid/RNA 10 w/w) | Reporter-protein knockdown relative to Lipofectamine 2000 (negative values indicate improved knockdown) ([1]; lipid/RNA 15 w/w) | other results
CCCCCCCCCCCCCCCOC(=O)CCN(CCCCCO)CCC(=O)OCCCCCCCCCCCCCCC [LG32] | 0.2 | 10.2 | 1.0 | 0.7 | 0.4 | 0.7 | 58.1 | 41.51 | 44.71 | −13.6483 | 
CCCCCCCCCCCCCCCOC(=O)CCN(CCC(=O)OCCCCCCCCCCCCCCC)CCC1CCCN1C (centres unmarked) [LG77] | 0.0 | 0.0 |  |  | 0.0 | 0.0 | 71.01 | −0.05414 | −7.721 | −21.3897 | % of the luciferase activity obtained from the use of Lipofectamine 2000 (cos-7 cells; 10 w/w lipid to DNA): 43.5%; % of the luciferase activity obtained from the use of Lipofectamine 2000 (cos-7 cells; 15 w/w lipid to DNA): 34.0%
CCCCCCCCCCCCCCCOC(=O)CCN(CCCN(C)C)CCC(=O)OCCCCCCCCCCCCCCC [LG80] | 2.2 | 11.9 | 19.8 | 31.3 | 21.9 | 17.4 | 2.007 | −9.09 | −15.9409 | −21.0263 | 
CCCCCCCCCCCCCCCOC(=O)CCN(CCO)CCN(CCC(=O)OCCCCCCCCCCCCCCC)CCC(=O)OCCCCCCCCCCCCCCC [LG109] | 16.3 | 36.0 | 23.4 | 37.9 | 25.7 | 34.5 | 55.7409 | 43.9 | −5.231 | −11.1255 | 
CCCCCCCCCCCCCCCCNC(=O)CCN(CCO)CCN(CCO)CCC(=O)NCCCCCCCCCCCCCCCC [NP103] |  |  |  |  |  |  |  |  |  |  | luciferase expression (second part of table, values relative to LIPO2000) (cos-7 cells; lipid/DNA 2.5 w/w): 83.0; luciferase expression (second part of table, values relative to LIPO2000) (cos-7 cells; lipid/DNA 5 w/w): 2.8; luciferase expression (second part of table, values relative to LIPO2000) (cos-7 cells; lipid/DNA 10 w/w): 0.0; luciferase expression (second part of table, values relative to LIPO2000) (cos-7 cells; lipid/DNA 15 w/w): 1.5; luciferase expression, second set of columns (replicate set of data) (cos-7 cells; 1st column, no head printed (2.5 w/w by the raw values)): 2.1; luciferase expression, second set of columns (replicate set of data) (cos-7 cells; 2nd column, no head printed (5 w/w by the raw values)): 2.3; luciferase expression, second set of columns (replicate set of data) (cos-7 cells; 3rd column, no head printed (10 w/w by the raw values)): 3.8; luciferase expression, second set of columns (replicate set of data) (cos-7 cells; 4th column, no head printed (15 w/w by the raw values)): 1.4; Raw values for luciferase expression ([2]; lipid/DNA 2.5 w/w): 8798627 relative lights units; Raw values for luciferase expression ([2]; lipid/DNA 5 w/w): 308844 relative lights units
